Data reported in paper PMC7721897, “Metabolism and pharmacokinetics of a novel polyphenol fatty acid ester phloridzin docosahexaenoate in Balb/c female mice” (Scientific Reports, 2020).

Assay: In vitro phase I metabolism with mouse hepatic microsomes and NADPH
Type: in vitro ADME
Conditions: liver microsomal enzymes of C57BL/6 male mice
Experimental: Figure 2 PZ-DHA undergoes phase I metabolism in the presence of freshly prepared mouse liver microsomes. PZ-DHA (1.1 µM) was incubated with 100 mM NADPH in the presence of mouse liver microsome for 1 h at 37 °C. Metabolites from PZ-DHA (A) hydrolysis, (B) and (C) hydroxylation, and (D) epoxidation were identified.
Mouse hepatic microsomes were freshly isolated from the livers of male C57BL/6 mice, and the entire extraction procedure was carried out at 4 °C. Mouse livers were minced and homogenized in KCl/sucrose phosphate buffer (0.154 M KCl, 0.25 M sucrose in 50 mM potassium phosphate buffer (K2HPO4/KH2PO4) (PPB), pH 7.5). Cell/tissue debris was separated out by centrifuging homogenized livers at 12,000×g for 22 min at 4 °C. The supernatant was collected and centrifuged at 100,000×g for 70 min at 4 °C. The pellet was gently rinsed using 50 mM PPB and resuspended in glycerol/phosphate buffer (20% glycerol (v/v), 80% 0.1 M PPB pH 7.5). The protein concentration was determined using a Bradford assay (R^2 = 1.00), and microsomes were stored at − 80 °C.
Potential in vitro phase I and phase II metabolites of PZ-DHA were detected by incubating PZ-DHA in the presence of freshly-prepared mouse hepatic microsome preparations. Phase I metabolites were determined by incubating 1.1 µM PZ-DHA with 100 mM NADPH in the presence of mouse hepatic microsomes for 1 h at 37 °C. Phase II methylation, glucuronidation, and sulphation of PZ-DHA was determined by incubating 1.1 µM PZ-DHA with 1 mM SAM, 2 mM UDPGA, and 0.5 mM PAPS, respectively, in the presence of freshly prepared mouse hepatic microsome for 1 h at 37 °C (Supplementary information Tables S1–S4). To assess the efficiency of the metabolic process, controls (no PZ-DHA control, no mouse hepatic microsome control and no co-factor control) were incubated in parallel to the test. Reactions were terminated by adding a mixture of 4 mL ice-cold acetonitrile:acetone (80:20) containing 0.05 mg/mL quercetin as the internal standard. Proteins were precipitated by incubating the reaction mixture at 4 °C overnight and separated by centrifuging at 14,000 × g for 15 min at 4 °C. Supernatants were concentrated under nitrogen flush, filtered and PZ-DHA and/or PZ-DHA metabolites were identified using a UPLC-ESI–MS/MS system (Waters Limited, Mississauga, ON, Canada).
PZ-DHA and/or PZ-DHA metabolites in malignant/non-malignant epithelial cell lysates, in vitro microsome enzyme reaction mixtures, and mouse serum aliquots were determined using UPLC-ESI–MS/MS instrument (Waters Limited, Mississauga, ON, Canada). All mass spectroscopic analyses were performed using mass scan (full-scan, identification of unknowns) and single ion monitoring (SIM; quantification of PZ, DHA, PZ-DHA, and quercetin) modes of a Waters H-class UPLC separations module coupled with a Micromass Quattro micro API MS/MS system and MassLynx V4.0 control software. An Allure biphenyl column (100 mm × 2.1 mm, 1.8 μm, Restek Pure Chromatography, Bellefonte, PA, USA) and a flow rate of 0.3 mL/min were employed. ESI- mode with a capillary voltage of 3000 V and a nebulizer gas (N2) temperature of 375 °C were used. A volume of 2 µL sample was injected.

## CC/C=C\C/C=C\C/C=C\C/C=C\C/C=C\C/C=C\CCC(=O)OC[C@H]1O[C@@H](Oc2cc(O)cc(O)c2C(=O)CCc2ccc(O)cc2)[C@H](O)[C@@H](O)[C@@H]1O [PZ-DHA, phloridzin docosahexaenoate]
  NADPH-dependent phase I bio-transformations identified: hydrolysis, hydroxylation, and epoxidation
